31 compounds from patent publication US20060063759A1, “Tricyclic steroid hormone nuclear receptor modulators” (priority 2002, published 2006) can be followed below.

Molecules are shown by their SMILES. Like-named read-outs stand apart in the source and are kept apart here.

One data set deals with T1, human MR (Homo sapiens, UniProt P08235).
T1 construct: The full length human MR gene is cloned from a human kidney or human brain cDNA library; His tag from the pAcHLT vector (own knowledge); made in house; host or cells: Sf9 insect cells (baculovirus, pAcHLT transfer vector)
T1 sequence (P08235 1-984): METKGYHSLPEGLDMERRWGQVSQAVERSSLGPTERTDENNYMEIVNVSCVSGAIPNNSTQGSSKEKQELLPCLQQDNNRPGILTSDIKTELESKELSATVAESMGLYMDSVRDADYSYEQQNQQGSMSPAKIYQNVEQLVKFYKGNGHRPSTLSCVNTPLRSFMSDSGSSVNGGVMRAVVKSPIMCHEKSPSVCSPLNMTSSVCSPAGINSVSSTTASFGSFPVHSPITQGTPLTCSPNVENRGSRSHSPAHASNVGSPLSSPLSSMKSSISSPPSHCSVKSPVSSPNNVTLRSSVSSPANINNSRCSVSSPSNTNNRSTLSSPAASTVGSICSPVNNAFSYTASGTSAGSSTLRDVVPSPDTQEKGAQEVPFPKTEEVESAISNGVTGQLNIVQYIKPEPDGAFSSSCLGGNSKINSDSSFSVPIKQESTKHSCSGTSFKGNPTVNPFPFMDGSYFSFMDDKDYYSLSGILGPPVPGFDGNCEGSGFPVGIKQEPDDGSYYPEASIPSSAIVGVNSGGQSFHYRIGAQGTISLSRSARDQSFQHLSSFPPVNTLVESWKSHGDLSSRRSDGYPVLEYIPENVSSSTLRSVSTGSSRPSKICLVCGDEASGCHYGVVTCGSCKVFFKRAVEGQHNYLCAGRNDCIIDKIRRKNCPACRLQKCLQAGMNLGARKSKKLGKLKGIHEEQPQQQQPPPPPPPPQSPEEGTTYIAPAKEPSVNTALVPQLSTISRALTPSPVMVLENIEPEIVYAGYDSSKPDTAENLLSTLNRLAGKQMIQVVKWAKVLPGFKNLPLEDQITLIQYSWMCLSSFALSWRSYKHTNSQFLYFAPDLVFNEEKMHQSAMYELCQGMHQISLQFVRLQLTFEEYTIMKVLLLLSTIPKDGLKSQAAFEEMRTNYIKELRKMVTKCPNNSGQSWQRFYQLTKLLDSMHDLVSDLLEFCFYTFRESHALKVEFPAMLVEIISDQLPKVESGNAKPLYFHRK
Briefly: Mineralocorticoid Receptor Binding Assay ([3H]-aldosterone). The procedure, abridged: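 Lysate supernatant of Sf9 cells expressing full-length human MR (20-25 μg protein) was incubated with 0.5 nM [3H]-aldosterone and test compound in molybdate/Tris/phosphate/glycerol buffer, pH 7.5, ~16 h at 4 °C. Bound ligand was filtered and counted by scintillation; IC50 is the concentration halving [3H]-aldosterone binding.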

The target in the next data set is T2, glucocorticoid receptor (Homo sapiens, UniProt P04150).
T2 construct: containing 50-200 ug of A549 cell extract and 1.86 nM [^3H]-dexamethasone; host or cells: A549 human lung epithelial cells (sonicated cell extract)
T2 sequence (P04150 1-777): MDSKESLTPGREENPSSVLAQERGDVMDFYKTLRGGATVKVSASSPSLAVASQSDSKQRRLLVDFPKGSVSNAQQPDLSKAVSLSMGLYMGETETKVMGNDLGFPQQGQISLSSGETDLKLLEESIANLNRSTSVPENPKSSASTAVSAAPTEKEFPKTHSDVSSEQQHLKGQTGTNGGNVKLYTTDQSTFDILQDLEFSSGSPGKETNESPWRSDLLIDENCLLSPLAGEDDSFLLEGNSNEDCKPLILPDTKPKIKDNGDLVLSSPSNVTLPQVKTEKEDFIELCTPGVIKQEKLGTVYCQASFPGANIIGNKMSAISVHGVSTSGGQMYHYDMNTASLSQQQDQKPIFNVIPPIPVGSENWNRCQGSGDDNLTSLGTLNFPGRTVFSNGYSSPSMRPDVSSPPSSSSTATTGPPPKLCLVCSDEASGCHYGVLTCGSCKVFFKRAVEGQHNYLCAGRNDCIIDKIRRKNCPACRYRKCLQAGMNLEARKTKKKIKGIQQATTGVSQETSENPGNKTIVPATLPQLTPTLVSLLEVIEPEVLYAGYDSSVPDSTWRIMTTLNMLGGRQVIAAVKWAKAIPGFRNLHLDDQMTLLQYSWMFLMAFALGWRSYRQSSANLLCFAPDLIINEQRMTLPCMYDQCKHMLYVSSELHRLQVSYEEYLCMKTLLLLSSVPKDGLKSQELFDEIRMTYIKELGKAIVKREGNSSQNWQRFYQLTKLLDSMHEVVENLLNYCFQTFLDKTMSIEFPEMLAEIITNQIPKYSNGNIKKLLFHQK
Briefly: Glucocorticoid Receptor Binding Assay ([3H]-dexamethasone, A549 cell extract). Particulars: [3H]-dexamethasone binding, read-out: GR Ki. The essentials: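 A549 cell extract (50–200 ug) incubated with 1.86 nM [3H]-dexamethasone and test compound for 16 h at 4 °C in Tris-HCl pH 7.2 buffer with glycerol and molybdate. Unbound radioligand removed by dextran-coated charcoal, then supernatant bound counts measured by scintillation.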

[1] abbreviates: [3H]-aldosterone binding, human MR expressed in Sf9 cells, read-out: MR Ki.

Usually melting point stands for the temperature of the solid-liquid transition. For the compound `O=S(=O)(c1ccccc1C=C1c2ccccc2CCc2ccccc21)N1CCOCC1` [Example 8, 4-[2-(10,11-Dihydro-dibenzo[a,d]cyclohepten-5-ylidenemethyl)-benzenesulfonyl]-morpholine], the melting point came out at 139.3 °C.

The compound `Cc1cc(S(=O)(=O)N(C)C)c(C=C2c3ccccc3CCc3ccccc32)cc1Cl` [Example 10, 4-Chloro-2-(10,11-dihydro-dibenzo[a,d]cyclohepten-5-ylidenemethyl)-5,N,N-trimethylbenzenesulfonamide] registered a melting point of 199.9 °C.

`Cc1cc(S(=O)(=O)N2CCOCC2)c(C=C2c3ccccc3CCc3ccccc32)cc1Cl` [Example 12, 4-[4-Chloro-2-(10,11-dihydro-dibenzo[a,d]cyclohepten-5-ylidenemethyl)-5-methyl-benzenesulfonyl]-morpholine] returned a melting point of 194.7 °C.

The compound `Cc1ccc(C=C2c3ccccc3CCc3ccccc32)c(S(=O)(=O)Nc2ccccc2)c1` [Example 13] registered a melting point of 220.4 °C.

With `Cc1ccc(C=C2c3ccccc3CCc3ccccc32)c(S(=O)(=O)NC2CC2)c1` [Example 14, N-Cyclopropyl-2-(10,11-dihydro-dibenzo[a,d]cyclohepten-5-ylidenemethyl)-5-methyl-benzenesulfonamide], the melting point amounted to 160.8 °C.

As to `Cc1ccc(C=C2c3ccccc3CCc3ccccc32)c(S(=O)(=O)NCc2ccccc2)c1` [Example 15, N-Benzyl-2-(10,11-dihydro-dibenzo[a,d]cyclohepten-5-ylidenemethyl)-5-methyl-benzenesulfonamide], the melting point was 138.3 °C.

Compound `CCNS(=O)(=O)c1cc(C)ccc1C=C1c2ccccc2CCc2ccccc21` [Example 17, 2-(10,11-Dihydro-dibenzo[a,d]cyclohepten-5-ylidenemethyl)-N-ethyl-5-methyl-benzenesulfonamide] yielded a melting point of 172.4 °C.

In the case of `Cc1ccc(C=C2c3ccccc3CCc3ccccc32)c(S(=O)(=O)N(C)C)c1` [Example 19, 2-(10,11-Dihydro-dibenzo[a,d]cyclohepten-5-ylidenemethyl)-5,N,N-trimethyl-benzenesulfonamide], the melting point came out at 186.6 °C.

As to `CCCNS(=O)(=O)c1cc(C)ccc1C=C1c2ccccc2CCc2ccccc21` [Example 20, 2-(10,11-Dihydro-dibenzo[a,d]cyclohepten-5-ylidenemethyl)-5-methyl-N-propyl-benzenesulfonamide], the melting point was 149.8 °C.

For the compound `Cc1ccc(C=C2c3ccccc3CCc3ccccc32)c(S(=O)(=O)N2CCOCC2)c1` [Example 22, 4-[2-(10,11-Dihydro-dibenzo[a,d]cyclohepten-5-ylidenemethyl)-5-methyl-benzenesulfonyl]-morpholine], the melting point is 157.2 °C.

Compound `Cc1ccc(C=C2c3ccccc3CCc3ccccc32)c(S(=O)(=O)NCC(F)(F)F)c1` [Example 23, 2-(10,11-Dihydro-dibenzo[a,d]cyclohepten-5-ylidenemethyl)-5-methyl-N-(2,2,2-trifluoro-ethyl)-benzenesulfonamide] returned a melting point of 100.7 °C.

In turn, `NS(=O)(=O)c1cccc(C=C2c3ccccc3CCc3ccccc32)c1` [Example 24, 3-(10,11-Dihydro-dibenzo[a,d]cyclohepten-5-ylidenemethyl)-benzenesulfonamide] registered a melting point of 204 °C.

A word on the Ki: it is a dissociation constant, usually derived from enzyme kinetics or from competition with a known ligand. Regarding `COc1ccc2c(c1)COc1cc(F)ccc1/C2=C(\C)c1cccc(NS(C)(=O)=O)c1` [Example 820], the Ki on human MR and on glucocorticoid receptor was less than 500 nM throughout.

Turning to `CC/C(=C1/c2ccc(OC)cc2COc2ccccc21)c1cccc(NS(C)(=O)=O)c1` [Example 821], the Ki at human MR (setting [1]) and on glucocorticoid receptor was less than 500 nM in each case.

Take `CC/C(=C1\c2ccc(OC)cc2COc2ccccc21)c1cccc(NS(C)(=O)=O)c1` [Example 822]: the inhibitory constant (Ki) on human MR (setting [1]) and on glucocorticoid receptor was less than 500 nM in each case.

As for `CC/C(=C1/c2ccc(OC)cc2COc2cc(F)ccc21)c1cccc(NS(C)(=O)=O)c1` [Example 823], the Ki on human MR (setting [1]) and at glucocorticoid receptor was less than 500 nM throughout.

For `CC/C(=C1\c2ccc(OC)cc2COc2cc(F)ccc21)c1cccc(NS(C)(=O)=O)c1` [Example 824], the Ki on human MR (setting [1]) and at glucocorticoid receptor was less than 500 nM throughout.

For the compound `COc1ccc2c(c1)CCc1cc(C)ccc1C2=C(C)c1cccc(NS(C)(=O)=O)c1` [Example 827], the inhibitory constant (Ki) on human MR (setting [1]) and at glucocorticoid receptor was less than 500 nM throughout.

As for `COc1ccc2c(c1)CCc1cc(C)ccc1/C2=C(/C)c1cccc(NS(C)(=O)=O)c1` [Example 828], the Ki on human MR (setting [1]) and on glucocorticoid receptor was less than 500 nM throughout.

Consider `COc1ccc2c(c1)CCc1cc(C)ccc1/C2=C(\C)c1cccc(NS(C)(=O)=O)c1` [Example 829], for which the Ki on human MR (setting [1]) and on glucocorticoid receptor was less than 500 nM throughout.

For the compound `CC(=C1c2ccc(C)cc2CCc2cc(F)ccc21)c1cccc(NS(C)(=O)=O)c1` [Example 830], the Ki on human MR (setting [1]) and on glucocorticoid receptor was less than 500 nM in each case.

In the case of `C/C(=C1\c2ccc(C)cc2CCc2cc(F)ccc21)c1cccc(NS(C)(=O)=O)c1` [Example 831], the Ki on human MR (setting [1]) and on glucocorticoid receptor was less than 500 nM in each case.

Turning to `C/C(=C1/c2ccc(C)cc2CCc2cc(F)ccc21)c1cccc(NS(C)(=O)=O)c1` [Example 832], the Ki at human MR (setting [1]) and on glucocorticoid receptor was less than 500 nM in each case.

With `CCC(=C1c2ccc(C)cc2CCc2cc(F)ccc21)c1cccc(NS(C)(=O)=O)c1` [Example 833], the inhibition constant Ki on human MR (setting [1]) and on glucocorticoid receptor was less than 500 nM throughout.

With `C/C(=C1/c2ccc(F)cc2CCc2ncccc21)c1cc(F)cc(NS(C)(=O)=O)c1` [Example 836], the Ki at human MR (setting [1]) and at glucocorticoid receptor was less than 500 nM each time.

In the case of `C/C(=C1\c2ccc(F)cc2CCc2ncccc21)c1cc(F)cc(NS(C)(=O)=O)c1` [Example 837], the Ki at human MR (setting [1]) and at glucocorticoid receptor was less than 500 nM in each case.

With `C/C(=C1/c2ccccc2COc2cc(F)ccc21)c1ccc2[nH]c(=O)[nH]c2c1` [Example 838], the inhibition constant Ki on human MR (setting [1]) and on glucocorticoid receptor was less than 500 nM each time.

On to `C/C(=C1\c2ccccc2COc2cc(F)ccc21)c1ccc2[nH]c(=O)[nH]c2c1` [Example 839], for which the Ki at human MR (setting [1]) and on glucocorticoid receptor was less than 500 nM each time.

Consider `COc1ccc2c(c1)CSc1ccccc1C2=C(C)c1cccc(NS(C)(=O)=O)c1` [Example 840], for which the Ki at human MR (setting [1]) and on glucocorticoid receptor was less than 500 nM in each case.

Regarding `COc1ccc2c(c1)CSc1ccccc1/C2=C(/C)c1cccc(NS(C)(=O)=O)c1` [Example 841], the Ki at human MR (setting [1]) and at glucocorticoid receptor was less than 500 nM throughout.

For `COc1ccc2c(c1)CSc1ccccc1/C2=C(\C)c1cccc(NS(C)(=O)=O)c1` [Example 842], the Ki at human MR (setting [1]) and on glucocorticoid receptor was less than 500 nM each time.
